From ChEMBL document CHEMBL1201862, “PubChem BioAssay data set” (2004)
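Growth conditions: 96-well plates. Treatment: test compound, 48 hours, 5 concentrations. Analysis: linear interpolation between bracketing concentrations; unreached endpoints set to highest concentration. GI50 is the concentration that inhibits growth by half.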 Calls of active or inactive are those of the source. No stated cut-off is given here; in the data, active = GI50 up to about 1.1 µM and inactive = higher.

How the values were obtained:
Experiment in all cases: NCI anticancer screen, dose series, 48 h
MCF7 = test system: MCF7
SN12C = test system: SN12C
SF-539 = test system: SF-539
SK-MEL-5 = test system: SK-MEL-5
COLO 205 = test system: COLO 205
OVCAR-3 = test system: OVCAR-3
MDA-MB-435 = test system: MDA-MB-435
LOX IMVI = test system: LOX IMVI
EKVX = test system: EKVX
SNB-19 = test system: SNB-19
UO-31 = test system: UO-31
SK-MEL-2 = test system: SK-MEL-2
NCI-H460 = test system: NCI-H460
RPMI-8226 = test system: RPMI-8226
SR = test system: SR
HCT-116 = test system: HCT-116
SK-OV-3 = test system: SK-OV-3
Hs-578T = test system: Hs-578T
ACHN = test system: ACHN

Structure (SMILES)	GI50 (MCF7)	GI50 (SN12C)	GI50 (SF-539)	GI50 (SK-MEL-5)	GI50 (COLO 205)	GI50 (OVCAR-3)	GI50 (MDA-MB-435)	GI50 (LOX IMVI)	GI50 (EKVX)	GI50 (SNB-19)	GI50 (UO-31)	GI50 (SK-MEL-2)	GI50 (NCI-H460)	GI50 (RPMI-8226)	GI50 (SR)	GI50 (HCT-116)	GI50 (SK-OV-3)	GI50 (Hs-578T)	GI50 (ACHN)
O=c1c(C(c2ccc3ccccc3c2)c2c(O)oc3cc(O)ccc3c2=O)c(O)oc2cc(O)ccc12	43.2 µM (inactive)	> 100 µM (inactive)	84.1 µM (inactive)	> 100 µM (inactive)	> 100 µM (inactive)	80 µM (inactive)	46 µM (inactive)	32.7 µM (inactive)	> 100 µM (inactive)	11.2 µM (inactive)	5.22 µM (inactive)	> 100 µM (inactive)	41.3 µM (inactive)	27.5 µM (inactive)	26.6 µM (inactive)	> 100 µM (inactive)	> 100 µM (inactive)	21.3 µM (inactive)	
CCOC(=O)/C=C(\N=P(c1ccccc1)(c1ccccc1)c1ccccc1)C(F)(F)C(F)(F)C(F)(F)C(F)(F)C(F)(F)F	> 100 µM (inactive)	> 100 µM (inactive)	> 100 µM (inactive)	> 100 µM (inactive)	> 100 µM (inactive)	> 100 µM (inactive)	> 100 µM (inactive)	> 100 µM (inactive)		> 100 µM (inactive)	> 100 µM (inactive)	> 100 µM (inactive)	> 100 µM (inactive)	> 100 µM (inactive)	> 100 µM (inactive)	> 100 µM (inactive)	> 100 µM (inactive)	> 100 µM (inactive)	47.8 µM (inactive)
COc1c2c(cc3c1OCO3)C13C=CC(OC)CC1N(CC3)C2.[O-][Cl+3]([O-])([O-])O (centres undefined)	> 100 µM (inactive)	> 100 µM (inactive)	> 100 µM (inactive)	29 µM (inactive)	35.6 µM (inactive)	> 100 µM (inactive)	34.3 µM (inactive)	> 100 µM (inactive)	> 100 µM (inactive)	> 100 µM (inactive)	> 100 µM (inactive)	> 100 µM (inactive)		> 100 µM (inactive)	4.9 µM (inactive)	> 100 µM (inactive)	> 100 µM (inactive)	> 100 µM (inactive)	> 100 µM (inactive)
c1ccc(CN[C@]23C4C5CC6C7C5C2C7[C@@](NCc2ccccc2)(C64)N3Cc2ccccc2)cc1 (some centres undefined)	> 100 µM (inactive)	> 100 µM (inactive)	> 100 µM (inactive)	> 100 µM (inactive)	> 100 µM (inactive)	> 100 µM (inactive)	> 100 µM (inactive)	> 100 µM (inactive)	> 100 µM (inactive)	> 100 µM (inactive)	> 100 µM (inactive)	> 100 µM (inactive)	> 100 µM (inactive)	> 100 µM (inactive)	3.94 µM (inactive)	> 100 µM (inactive)	> 100 µM (inactive)	> 100 µM (inactive)	> 100 µM (inactive)
O=S(=O)(O)SCCNCCCCCC1CCCCC1	2.75 µM (inactive)	6.12 µM (inactive)	7.11 µM (inactive)	15.8 µM (inactive)	16.6 µM (inactive)	5.87 µM (inactive)	3.44 µM (inactive)	2.14 µM (inactive)	9.73 µM (inactive)	5.46 µM (inactive)	13.9 µM (inactive)	2.87 µM (inactive)	4.72 µM (inactive)	17.1 µM (inactive)	8.99 µM (inactive)	5.05 µM (inactive)	15.7 µM (inactive)	14.5 µM (inactive)	16.1 µM (inactive)
CCOC(=O)C(NC(=O)c1ccccc1)(Nc1ccc(S(=O)(=O)Nc2cc(C)on2)cc1)C(F)(F)F (centres undefined)	> 100 µM (inactive)	> 100 µM (inactive)	> 100 µM (inactive)	> 100 µM (inactive)	> 100 µM (inactive)	> 100 µM (inactive)	> 100 µM (inactive)	> 100 µM (inactive)	> 100 µM (inactive)	> 100 µM (inactive)	> 100 µM (inactive)	> 100 µM (inactive)	> 100 µM (inactive)	> 100 µM (inactive)	> 100 µM (inactive)	> 100 µM (inactive)	> 100 µM (inactive)	> 100 µM (inactive)	> 100 µM (inactive)
COc1ccc(Oc2nc(C#CC(C)(C)O)nc(Oc3ccc(OC)cc3)n2)cc1	1.51 µM (inactive)	13.9 µM (inactive)	7.08 µM (inactive)	14.5 µM (inactive)	3.59 µM (inactive)	2.1 µM (inactive)	4.44 µM (inactive)	1.39 µM (inactive)	16 µM (inactive)	20 µM (inactive)	1.55 µM (inactive)	6.73 µM (inactive)	16.7 µM (inactive)		0.625 µM (active)	2.82 µM (inactive)	19.2 µM (inactive)	16.4 µM (inactive)	1.69 µM (inactive)
